Experimental data: patent US20080051429A1, “USE OF 4-AMINO-PIPERIDINES FOR TREATING SLEEP DISORDERS” (priority 2006, published 2008)
Where two headings read alike, the source gives them in different places.

Tests used:
Assay type in all cases: cell-based
5-HT2A receptor = molecular target: T1, 5-HT2A receptor (Homo sapiens, UniProt P28223); test: R-SAT functional receptor assay; conditions: for EC50: agonist
T1 construct: expressed in transfected cells; host or cells: NIH3T3 cells, pSI expression vector

alpha 2C = molecular target: T2, alpha 2C (Homo sapiens, UniProt P18825); test: R-SAT broad profiling; conditions: read-out: pEC50/pIC50 (converted)
T2 construct: expressed in transfected cells; host or cells: NIH3T3
T2 sequence (P18825 1-462): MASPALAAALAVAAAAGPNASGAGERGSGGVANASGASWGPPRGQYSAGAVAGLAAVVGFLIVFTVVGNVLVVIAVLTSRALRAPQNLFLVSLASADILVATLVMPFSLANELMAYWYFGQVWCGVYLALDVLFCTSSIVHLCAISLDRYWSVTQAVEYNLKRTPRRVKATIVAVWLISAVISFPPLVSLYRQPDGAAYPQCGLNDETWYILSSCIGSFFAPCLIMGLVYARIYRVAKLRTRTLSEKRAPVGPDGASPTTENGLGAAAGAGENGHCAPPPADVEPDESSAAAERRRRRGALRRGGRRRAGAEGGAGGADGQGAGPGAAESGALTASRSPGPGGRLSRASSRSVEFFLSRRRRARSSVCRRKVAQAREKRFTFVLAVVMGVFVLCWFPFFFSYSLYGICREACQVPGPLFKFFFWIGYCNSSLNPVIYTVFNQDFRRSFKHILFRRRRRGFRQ
Experimental: (§1) The functional receptor assay, Receptor Selection and Amplification Technology (R-SAT), was used (with minor modifications from that previously described U.S. Pat. No. 5,707,798) to screen compounds for efficacy at the 5-HT2A receptor. Briefly, NIH3T3 cells were grown in 96 well tissue culture plates to 70-80% confluence. Cells were transfected for 12-16 hours with plasmid DNAs using superfect (Qiagen Inc.) as per manufacture's protocols. R-SAT's were generally performed with 50 ng/well of receptor and 20 ng/well of Beta-galactosidase plasmid DNA. All receptor and G-protein constructs used were in the pSI mammalian expression vector (Promega Inc) as described in U.S. Pat. No. 5,707,798. The 5HT2A receptor gene was amplified by nested PCR from brain cDNA using the oligodeoxynucleotides based on the published sequence (see Saltzman et. al. Biochem. Biophys. Res. Comm. 181:1469-78 (1991)). Large-scale transfections, cells were transfected for 12-16 hours, then trypsinized and frozen in DMSO. Frozen cells were later thawed, plated at 10,000-40,000 cells per well of a 96 well plate that contained drug. With both methods, cells were then grown in a humidified atmosphere with 5% ambient CO2 for five days. Media was then removed from the plates and marker gene activity was measured by the addition of the beta-galactosidase substrate ONPG (in PBS with 5% NP-40). The resulting colorimetric reaction was measured in a spectrophotometric plate reader (Titertek Inc.)at […]. All data were analyzed using the computer program XLFit (IDBSm). Efficacy is the percent maximal repression compared to repression by a control compound (ritanserin in the case of 5HT2A). pIC50 is the negative of the log(IC50), where IC50 is the calculated concentration in Molar that produces 50% maximal repression.
(§2) The R-SAT assay (described above in example 136) was used to investigate the selectivity of 2-(4-Methoxyphenyl)-N-(4-methylbenzyl)-N-(1-methylpiperidin-4-yl)acetamide hydrochloride.

alpha-1A(a/c) = molecular target: T3, alpha-1A(a/c) (Homo sapiens, UniProt P35348); test: R-SAT broad profiling; conditions: read-out: pEC50/pIC50 (converted)
T3 construct: expressed in transfected cells; host or cells: NIH3T3
Experimental: as §1, §2

m3 = molecular target: T4, m3 (Homo sapiens, UniProt P20309); test: R-SAT broad profiling; conditions: read-out: pEC50/pIC50 (converted)
T4 construct: expressed in transfected cells; host or cells: NIH3T3
Experimental: as §1, §2

5-HT4 = molecular target: T5, 5-HT4 (Homo sapiens, UniProt Q13639); test: R-SAT broad profiling; conditions: read-out: pEC50/pIC50 (converted)
T5 construct: expressed in transfected cells
Experimental: as §1, §2

m5 = molecular target: T6, m5 (Homo sapiens, UniProt P08912); test: R-SAT broad profiling; conditions: read-out: pEC50/pIC50 (converted)
T6 construct: expressed in transfected cells; host or cells: NIH3T3
T6 sequence (P08912 1-532): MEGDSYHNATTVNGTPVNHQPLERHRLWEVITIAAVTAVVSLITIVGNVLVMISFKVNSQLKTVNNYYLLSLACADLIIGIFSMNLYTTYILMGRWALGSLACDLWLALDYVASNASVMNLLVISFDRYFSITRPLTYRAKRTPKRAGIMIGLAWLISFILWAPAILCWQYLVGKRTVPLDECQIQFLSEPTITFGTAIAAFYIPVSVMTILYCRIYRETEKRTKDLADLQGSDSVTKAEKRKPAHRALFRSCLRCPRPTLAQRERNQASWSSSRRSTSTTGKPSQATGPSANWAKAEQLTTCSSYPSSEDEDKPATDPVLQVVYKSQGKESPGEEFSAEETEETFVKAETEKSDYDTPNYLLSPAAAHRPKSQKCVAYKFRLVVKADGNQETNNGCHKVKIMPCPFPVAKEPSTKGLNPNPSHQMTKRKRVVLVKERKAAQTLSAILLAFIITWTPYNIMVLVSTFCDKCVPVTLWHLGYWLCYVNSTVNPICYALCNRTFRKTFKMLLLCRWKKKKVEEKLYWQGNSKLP
Experimental: as §1, §2

beta 2 = molecular target: T7, beta 2 (Homo sapiens, UniProt P07550); test: R-SAT broad profiling; conditions: read-out: pEC50/pIC50 (converted)
T7 construct: expressed in transfected cells; host or cells: NIH3T3
Experimental: as §1, §2

endothelinB = molecular target: T8, endothelinB (Homo sapiens, UniProt P24530); test: R-SAT broad profiling; conditions: agonist; read-out: pEC50/pIC50 (converted)
T8 construct: expressed in transfected cells; host or cells: NIH3T3
Experimental: as §1, §2

T1 sequence (P28223 whole entry): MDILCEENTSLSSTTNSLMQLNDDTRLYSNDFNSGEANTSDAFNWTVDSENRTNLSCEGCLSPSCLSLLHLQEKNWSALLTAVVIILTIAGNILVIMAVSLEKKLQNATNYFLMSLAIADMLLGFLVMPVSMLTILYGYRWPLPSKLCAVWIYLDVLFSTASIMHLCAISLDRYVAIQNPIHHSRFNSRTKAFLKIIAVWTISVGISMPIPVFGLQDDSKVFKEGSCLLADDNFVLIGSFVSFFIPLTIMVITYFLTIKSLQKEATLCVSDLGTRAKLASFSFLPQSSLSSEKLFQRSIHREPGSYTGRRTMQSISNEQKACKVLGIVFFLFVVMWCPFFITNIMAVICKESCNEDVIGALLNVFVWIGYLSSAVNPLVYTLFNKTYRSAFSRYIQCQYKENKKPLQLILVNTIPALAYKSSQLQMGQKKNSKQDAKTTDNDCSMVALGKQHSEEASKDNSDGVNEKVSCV
T7 sequence (P07550 whole entry): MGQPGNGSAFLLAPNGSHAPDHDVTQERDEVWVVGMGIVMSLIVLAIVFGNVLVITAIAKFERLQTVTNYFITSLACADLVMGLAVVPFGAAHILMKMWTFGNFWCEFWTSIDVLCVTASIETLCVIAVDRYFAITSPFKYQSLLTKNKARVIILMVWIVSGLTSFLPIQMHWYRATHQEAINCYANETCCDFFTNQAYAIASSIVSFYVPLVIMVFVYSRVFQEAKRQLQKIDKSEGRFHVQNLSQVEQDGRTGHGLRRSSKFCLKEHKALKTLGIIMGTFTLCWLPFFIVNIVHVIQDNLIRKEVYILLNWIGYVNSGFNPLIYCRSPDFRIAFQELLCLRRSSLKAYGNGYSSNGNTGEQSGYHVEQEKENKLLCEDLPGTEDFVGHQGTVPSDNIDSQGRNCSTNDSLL
T4 sequence (P20309 whole entry): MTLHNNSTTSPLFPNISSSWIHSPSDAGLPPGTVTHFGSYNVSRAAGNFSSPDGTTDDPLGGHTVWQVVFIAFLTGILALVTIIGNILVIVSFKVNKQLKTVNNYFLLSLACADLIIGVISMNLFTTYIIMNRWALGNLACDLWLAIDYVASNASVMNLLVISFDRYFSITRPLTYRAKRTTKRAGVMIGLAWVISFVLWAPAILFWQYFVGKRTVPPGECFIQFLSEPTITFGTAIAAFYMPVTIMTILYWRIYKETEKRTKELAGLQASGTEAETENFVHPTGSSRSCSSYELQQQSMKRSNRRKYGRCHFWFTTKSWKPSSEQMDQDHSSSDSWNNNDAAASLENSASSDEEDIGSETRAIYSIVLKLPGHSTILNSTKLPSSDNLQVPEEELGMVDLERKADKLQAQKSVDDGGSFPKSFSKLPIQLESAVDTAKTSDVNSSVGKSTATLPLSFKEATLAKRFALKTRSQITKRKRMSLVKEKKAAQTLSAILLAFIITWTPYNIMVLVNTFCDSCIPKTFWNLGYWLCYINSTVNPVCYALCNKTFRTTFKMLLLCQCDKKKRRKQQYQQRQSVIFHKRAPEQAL
T3 sequence (P35348 whole entry): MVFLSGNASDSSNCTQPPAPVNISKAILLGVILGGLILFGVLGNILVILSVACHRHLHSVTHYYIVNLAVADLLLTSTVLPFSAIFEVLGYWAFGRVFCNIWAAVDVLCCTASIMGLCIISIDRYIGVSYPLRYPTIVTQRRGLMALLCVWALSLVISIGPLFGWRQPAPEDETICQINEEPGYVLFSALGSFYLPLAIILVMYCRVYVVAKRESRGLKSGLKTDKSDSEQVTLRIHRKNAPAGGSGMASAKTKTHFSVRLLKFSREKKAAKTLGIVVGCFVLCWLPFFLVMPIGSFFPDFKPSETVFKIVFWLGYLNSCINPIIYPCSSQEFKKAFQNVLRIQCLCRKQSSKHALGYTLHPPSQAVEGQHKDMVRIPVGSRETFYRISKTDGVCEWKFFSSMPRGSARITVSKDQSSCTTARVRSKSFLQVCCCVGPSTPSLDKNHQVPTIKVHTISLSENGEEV
T5 sequence (Q13639 1-387 isoform Q13639-2, species assumed): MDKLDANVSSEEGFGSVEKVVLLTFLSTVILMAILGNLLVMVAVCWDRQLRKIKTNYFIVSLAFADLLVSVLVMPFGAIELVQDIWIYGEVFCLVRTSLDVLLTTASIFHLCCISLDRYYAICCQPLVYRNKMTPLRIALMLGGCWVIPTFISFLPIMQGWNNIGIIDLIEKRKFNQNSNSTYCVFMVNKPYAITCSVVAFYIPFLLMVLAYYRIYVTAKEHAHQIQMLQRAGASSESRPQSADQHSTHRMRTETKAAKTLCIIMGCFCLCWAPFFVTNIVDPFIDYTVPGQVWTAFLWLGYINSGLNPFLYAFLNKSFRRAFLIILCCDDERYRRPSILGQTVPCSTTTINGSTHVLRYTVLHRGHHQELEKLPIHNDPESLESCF
T8 sequence (P24530 27-442): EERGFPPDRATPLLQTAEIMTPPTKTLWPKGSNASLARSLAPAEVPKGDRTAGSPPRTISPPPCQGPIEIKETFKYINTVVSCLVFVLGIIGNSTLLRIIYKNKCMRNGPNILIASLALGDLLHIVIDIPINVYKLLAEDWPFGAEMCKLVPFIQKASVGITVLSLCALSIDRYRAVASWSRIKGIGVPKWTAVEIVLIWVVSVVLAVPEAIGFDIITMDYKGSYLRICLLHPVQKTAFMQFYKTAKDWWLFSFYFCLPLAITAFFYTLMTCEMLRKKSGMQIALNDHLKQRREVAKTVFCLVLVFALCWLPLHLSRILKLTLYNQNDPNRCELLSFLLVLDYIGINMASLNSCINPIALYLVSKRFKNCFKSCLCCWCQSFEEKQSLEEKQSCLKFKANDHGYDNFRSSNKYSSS

EC50 (alpha 2C; agonist) [µM] | IC50 (alpha 2C; antagonist) [µM] | EC50 (alpha-1A(a/c); agonist) [µM] | IC50 (alpha-1A(a/c); antagonist) [µM] | EC50 (m3; agonist) [µM] | IC50 (m3; antagonist) [µM] | EC50 (5-HT4; agonist) [µM] | IC50 (5-HT4; inverse agonist) [µM] | EC50 (m5; agonist) [µM] | IC50 (m5; antagonist) [µM] | EC50 (beta 2; agonist) [µM] | IC50 (beta 2; antagonist) [µM] | EC50 (endothelinB) [µM] | Emax (5-HT2A receptor; 120 h, read-out: Percent Efficacy, compared to ritanserin) [%] | IC50 (5-HT2A receptor; Table 3, read-out: pIC50 (converted)) [µM] | EC50 (5-HT2A receptor; read-out: pEC50/pIC50 (converted)) [µM] | IC50 (5-HT2A receptor; inverse agonist, read-out: pEC50/pIC50 (converted)) [µM] | SMILES | EC50 (5-HT2A receptor; read-out: pEC50 or pIC50 (converted)) [µM] | 5HT2A % inhibition (5-HT2A receptor; compared to ritanserin) [%] | efficacy in brackets (5-HT2A receptor; inverse) [%]
 |  |  |  |  |  |  |  |  |  |  |  |  |  |  |  |  | CC(C)COc1ccc(CN2C(=O)OC3(CCN(C)CC3)C2Cc2ccc(F)cc2)cc1.Cl (racemic) [Example 69NLS75, 4-(4-Fluorobenzyl)-3-(4-isobutoxybenzyl)-8-methyl-1-oxa-3,8-diazaspiro[4.5]decan-2-one, hydrochloride] | > 3.16 | 94 | 94
> 3.16 | > 3.16 | > 3.16 | > 3.16 | > 3.16 | > 3.16 | > 3.16 | > 3.16 | > 3.16 | > 3.16 | > 3.16 | > 3.16 | > 3.16 | 108 | 0.002 | > 3.16 | 0.00158 | COc1ccc(CC(=O)N(Cc2ccc(C)cc2)C2CCN(C)CC2)cc1 [Example 50ELH27, 2-(4-Methoxyphenyl)-N-(4-methylbenzyl)-N-(1-methylpiperidin-4-yl)acetamide] |  |  | 
